#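 Cultured in 96-well plates, cells were exposed to test compound for 48 hours across five concentrations. Abbreviation: GI50, concentration required for 50% inhibition of growth. TGI marks complete inhibition of growth.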
# Tests used:
# Assay in all cases: NCI tumour cell line growth inhibition, 48 h
# SK-OV-3 ovarian = system: SK-OV-3 ovarian
# NCI-H226 lung = system: NCI-H226 lung
# HCC-2998 colon = system: HCC-2998 colon
# IGROV1 ovarian = system: IGROV1 ovarian
# CCRF-CEM leukemia = system: CCRF-CEM leukemia
# SF-539 CNS = system: SF-539 CNS
# SK-MEL-2 melanoma = system: SK-MEL-2 melanoma
# OVCAR-8 ovarian = system: OVCAR-8 ovarian
# HL-60(TB) leukemia = system: HL-60(TB) leukemia
# SR leukemia = system: SR leukemia
Compound,TGI (SK-OV-3 ovarian) [µM],TGI (NCI-H226 lung) [µM],TGI (HCC-2998 colon) [µM],TGI (IGROV1 ovarian) [µM],TGI (CCRF-CEM leukemia) [µM],TGI (SF-539 CNS) [µM],TGI (SK-MEL-2 melanoma) [µM],TGI (OVCAR-8 ovarian) [µM],TGI (HL-60(TB) leukemia) [µM],TGI (SR leukemia) [µM],GI50 (SK-OV-3 ovarian) [µM],GI50 (NCI-H226 lung) [µM],GI50 (HCC-2998 colon) [µM],GI50 (IGROV1 ovarian) [µM],GI50 (SR leukemia) [µM],GI50 (CCRF-CEM leukemia) [µM],GI50 (SF-539 CNS) [µM],GI50 (SK-MEL-2 melanoma) [µM],GI50 (OVCAR-8 ovarian) [µM],GI50 (HL-60(TB) leukemia) [µM]
COC(=O)C1C(C(=O)OC)N(Cc2ccccc2)C(=O)N1Cc1ccccc1 (centres undefined),> 100,> 100,> 100,> 100,> 100,> 100,> 100,> 100,> 100,,,,,,,,,,,
O=C1C(Cl)=C(N2CCN(C3=C(Cl)C(=O)c4ccccc4C3=O)CC2)C(=O)c2ccccc21,28,11.8,8.35,4.11,0.718,3.15,3.34,3.16,1.26,0.458,,,,,,,,,,
C#CCCCCC#Cc1ccccc1C(=O)OC,> 100,> 100,> 100,> 100,32.4,> 100,> 100,31.5,29.4,29.2,,,,,,,,,,
CC1=C(O)C(=O)[C@@H]2O[C@@H]2C1=O,107,37,35.6,48.4,8.09,41.9,38.1,24.7,8.59,,,,,,,,,,,
Oc1ccc(/C=C/c2cc(O)cc(O)c2)cc1,> 100,> 100,> 100,,,> 100,> 100,> 100,> 100,> 100,,,,,,,,,,
COCCOCOc1ccc(OCc2ccccc2)cc1,> 100,> 100,> 100,> 100,> 100,> 100,> 100,> 100,> 100,,,,,,,,,,,
C/C(CCOC1CCCCO1)=C(\C)[Si](C)(C)C (centres undefined),,,> 100,> 100,> 100,> 100,> 100,> 100,> 100,> 100,,,,,,,,,,
COc1ccc2[nH]c(O)c(/C=c3/cc4c(c(-c5cc(OC)c(OC)c(OC)c5)n3)=Nc3ccccc3-4)c2c1,> 100,> 100,> 100,> 100,12.4,> 100,> 100,> 100,34,8.79,> 100,> 100,34,> 100,1.59,1.41,22.6,15.9,3.77,7.46
CCCc1cc(=O)c2c(C)c3[nH]c4ccc(Cl)cc4c3c(C)c2[nH]1,,12.8,3.02,4.7,5.83,3.56,14.6,6.31,,4.93,,,,,,,,,,
CCN1c2ccccc2-n2c(C)nnc2-c2c1n[nH]c2-c1ccccc1,> 100,,,> 100,55.4,> 100,45.6,> 100,28.5,59.2,,,,,,,,,,
C=CCN1C(=O)/C(=C/c2ccccc2)N=C1SC1OC(COC(=O)c2ccccc2)C(OC(=O)c2ccccc2)C1OC(=O)c1ccccc1 (centres undefined),> 100,> 100,> 100,> 100,70.4,> 100,> 100,> 100,> 100,> 100,,,,,,,,,,

# Source: PubChem BioAssay (NCI)
